Target: CRBN truncate (318-426) (Homo sapiens (Human), UniProt Q96SW2)
Test: Measurement of molecular interactions using surface plasmon resonance (SPR), Biacore T200
Assay type: binding
Conditions: 25° C., immobilized CRBN truncate, upper limit of measurement 200 μM
Procedure: The instrument used was the Biacore T200 (manufactured by Cytiva). The CRBN truncate (318-426) was obtained by expressing a construct with an Avi-tag added at the C-terminus. The sensor chip used was Sensor Chip SA (manufactured by Cytiva). The CRBN truncate was immobilized using the affinity between SA (streptavidin) on the sensor chip and the Avi-tag. The running buffer was a mixture of 10 mM HEPES pH 7.5, 150 mM NaCl, 1 mM TCEP, 0.005% Tween 20, and 2% DMSO. […] Contact time and dissociation time were set at 60 seconds and 120 seconds, respectively.

Sequence of CRBN truncate (318-426) (Q96SW2 318-426): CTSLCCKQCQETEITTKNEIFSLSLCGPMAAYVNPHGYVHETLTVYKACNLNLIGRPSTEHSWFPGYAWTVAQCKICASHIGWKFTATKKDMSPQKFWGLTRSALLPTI

| Kd [µM] | Structure (SMILES) |
| --- | --- |
| ≥ 100 | O=C1CCC(N2C(=O)CC3(CN(C(=O)CNC(=O)c4ccccc4)C3)C2=O)C(=O)N1 (stereo not drawn) [Example 55, N-[2-[6-(2,6-Dioxopiperidin-3-yl)-5,7-dioxo-2,6-diazaspiro[3.4]octan-2-yl]-2-oxoethyl]benzamide] |
| 50 to 100 | CC(C)(C)OC(=O)c1ccc(N2CCCC3(CCCC(=O)NC3=O)CCC2)nc1 [Example 56, tert-Butyl 6-(1,3-dioxo-2,11-diazaspiro [6.7]tetradecan-11-yl) pyridine-3-carboxylate] |
| ≥ 100 | O=C1CCCC(CNC(=O)c2ccccc2)C(=O)N1 (stereo not drawn) [Example 57, N-[(2,7-Dioxoazepan-3-yl)methyl]benzamide] |
| < 50 | CCOC(=O)c1ccc2nc(N3CC4(CC(=O)N(C5CCC(=O)NC5=O)C4)C3)sc2c1 (stereo not drawn) [Example 59, Ethyl 2-[6-(2,6-dioxo-3-piperidyl)-7-oxo-2,6-diazaspiro [3.4]octan-2-yl]-1,3-benzothiazole-6-carboxylate] |
| 50 to 100 | CC(C)(C)OC(=O)c1cccc(C2CCCC(=O)NC2=O)c1 (stereo not drawn) [Example 60, tert-Butyl 3-(2,7-dioxoazepan-3-yl) benzoate] |
| ≥ 100 | O=C1CCCC(c2ccc([N+](=O)[O-])cc2)C(=O)N1 (stereo not drawn) [Example 61, 3-(4-Nitrophenyl) azepane-2,7-dione] |
| ≥ 100 | O=C1CCCC(c2cccc([N+](=O)[O-])c2)C(=O)N1 (stereo not drawn) [Example 62, 3-(3-Nitrophenyl) azepane-2,7-dione] |
| ≥ 100 | CC(=O)Nc1ccc(Cl)c(C2CCCC(=O)NC2=O)c1 (stereo not drawn) [Example 65, N-[4-Chloro-3-(2,7-dioxoazepan-3-yl)phenyl]acetamide] |
| ≥ 100 | O=C1CCCC(Oc2ccccc2[N+](=O)[O-])C(=O)N1 (stereo not drawn) [Example 66-1, 3-(2-Nitrophenoxy) azepane-2,7-dione] |
| ≥ 100 | Nc1ccccc1OC1CCCC(=O)NC1=O (stereo not drawn) [Example 66-2, 3-(2-Aminophenoxy) azepane-2,7-dione] |
| ≥ 100 | CC(C)(C)OC(=O)COc1cccc(C(=O)NC2CCCC(=O)NC2=O)c1F (stereo not drawn) [Example 67, tert-Butyl 2-[3-[(2,7-dioxoazepan-3-yl)carbamoyl]-2-fluorophenoxy]acetate] |
| ≥ 100 | COc1c(OCC(=O)OC(C)(C)C)cccc1C(=O)NC1CCCC(=O)NC1=O (stereo not drawn) [Example 68, tert-Butyl 2-[3-[(2,7-dioxoazepan-3-yl)carbamoyl]-2-methoxyphenoxy]acetate] |
| 50 to 100 | CC(C)(C)OC(=O)COc1cccc(C(=O)NC2CCCC(=O)NC2=O)n1 (stereo not drawn) [Example 69, tert-Butyl 2-(6-((2,7-dioxoazepan-3-yl)carbamoyl)pyridin-2-yl) oxyacetate] |
| ≥ 100 | Nc1cccc(C2CCCC(=O)NC2=O)c1 (stereo not drawn) [Example 70, 3-(3-Aminophenyl) azepane-2,7-dione] |
| ≥ 100 | CC(=O)Nc1cccc(C2CCCC(=O)NC2=O)c1 (stereo not drawn) [Example 71, N-[3-(2,7-Dioxoazepan-3-yl)phenyl]acetamide] |
| < 50 | O=C1CCCC2(CCN(c3nc4ccc([N+](=O)[O-])cc4s3)C2)C(=O)N1 (stereo not drawn) [Example 72, 2-(6-Nitro-1,3-benzothiazol-2-yl)-2,7-diazaspiro [4.6]undecane-6,8-dione] |
| < 50 | CCOC(=O)c1ccc2nc(N3CCC4(CCCC(=O)NC4=O)C3)sc2c1 (stereo not drawn) [Example 73, Ethyl 2-(6,8-dioxo-2,7-diazaspiro[4.6]undecane-2-yl)-1,3-benzothiazole-6-carboxylate] |
| ≥ 100 | O=C1CCCC2(CCN(c3nc4ncccc4s3)C2)C(=O)N1 (stereo not drawn) [Example 74, 2-([1,3]thiazolo[4,5-b]pyridin-2-yl)-2,7-diazaspiro[4.6]undecane-6,8-dione] |
| < 50 | O=C1CCCC2(CCN(c3ccc([N+](=O)[O-])cn3)C2)C(=O)N1 (stereo not drawn) [Example 75, 2-(5-nitro-2-pyridyl)-2,7-diazaspiro[4.6]undecane-6,8-dione] |
| ≥ 100 | O=Cc1ccc(N2CCC3(CCCC(=O)NC3=O)C2)nc1 (stereo not drawn) [Example 76, 6-(6,8-Dioxo-2,7-diazaspiro[4.6]undecane-2-yl)pyridine-3-carbaldehyde] |
| < 50 | O=C1CCCC2(CCN(c3ncc([N+](=O)[O-])cc3Cl)C2)C(=O)N1 (stereo not drawn) [Example 77, 2-(3-chloro-5-nitro-2-pyridyl)-2,7-diazaspiro[4.6]undecane-6,8-dione] |
| ≥ 100 | O=C1CCCC2(CCN(c3ncc([N+](=O)[O-])cc3C(F)(F)F)C2)C(=O)N1 (stereo not drawn) [Example 79, 2-(5-nitro-3-(trifluoromethyl)-2-pyridyl)-2,7-diazaspiro[4.6]undecane-6,8-dione] |
| < 50 | O=C1CCCC2(CCN(c3ccc([N+](=O)[O-])cc3)C2)C(=O)N1 (stereo not drawn) [Example 80, 2-(4-Nitrophenyl)-2,7-diazaspiro[4.6]undecane-6,8-dione] |

| Kd [µM] | Structure (SMILES) |
| --- | --- |
| ≥ 100 | Cc1cc(N2CCC3(CCCC(=O)NC3=O)C2)ccc1[N+](=O)[O-] (stereo not drawn) [Example 81, 2-(3-Methyl-4-nitrophenyl)-2,7-diazaspiro[4.6]undecane-6,8-dione] |
| 50 to 100 | Cc1cc([N+](=O)[O-])ccc1N1CCC2(CCCC(=O)NC2=O)C1 (stereo not drawn) [Example 82, 2-(2-Methyl-4-nitrophenyl)-2,7-diazaspiro[4.6]undecane-6,8-dione] |
| < 50 | O=C1CCCC2(CCN(c3ccc([N+](=O)[O-])cc3F)C2)C(=O)N1 (stereo not drawn) [Example 83, 2-(2-Fluoro-4-nitrophenyl)-2,7-diazaspiro[4.6]undecane-6,8-dione] |
| < 50 | O=C1CCCC2(CCN(c3ccc([N+](=O)[O-])cc3Cl)C2)C(=O)N1 (stereo not drawn) [Example 84, 2-(2-Chloro-4-nitrophenyl)-2,7-diazaspiro[4.6]undecane-6,8-dione] |
| 50 to 100 | Nc1ccc2nc(N3CCC4(CCCC(=O)NC4=O)C3)sc2c1 (stereo not drawn) [Example 85, 2-(6-Amino-1,3-benzothiazol-2-yl)-2,7-diazaspiro[4.6]undecane-6,8-dione] |
| ≥ 100 | Nc1ccc(N2CCC3(CCCC(=O)NC3=O)C2)c(F)c1 (stereo not drawn) [Example 86, 2-(4-Amino-2-fluorophenyl)-2,7-diazaspiro[4.6]undecane-6,8-dione] |
| ≥ 100 | CC(=O)Nc1ccc2nc(N3CCC4(CCCC(=O)NC4=O)C3)sc2c1 (stereo not drawn) [Example 87, N-[2-(6,8-dioxo-2,7-diazaspiro[4.6]undecan-2-yl)-1,3-benzothiazol-6-yl]acetamide] |
| ≥ 100 | CC(=O)Nc1ccc(N2CCC3(CCCC(=O)NC3=O)C2)c(F)c1 (stereo not drawn) [Example 88, N-[4-(6,8-dioxo-2,7-diazaspiro[4.6]undecan-2-yl)-3-fluorophenyl]acetamide] |
| ≥ 100 | CC(=O)N1CCN(Cc2ccc(N3CCC4(CCCC(=O)NC4=O)C3)nc2)CC1 (stereo not drawn) [Example 89, 2-[5-[(4-Acetylpiperazin-1-yl)methyl]pyridin-2-yl]-2,7-diazaspiro[4.6]undecane-6,8-dione] |
| < 50 | CC(C)(C)OC(=O)c1ccc(N2CCC3(CCCC(=O)NC3=O)C2)nc1 (stereo not drawn) [Example 90-1, tert-Butyl 6-(6,8-dioxo-2,7-diazaspiro [4.6]undecan-2-yl) pyridine-3-carboxylate] |
| ≥ 100 | CC(C)(C)OC(=O)c1ccc(N2CCC3(CCCC(=O)NC3=O)C2=O)nc1 (stereo not drawn) [Example 90-2, tert-Butyl 6-(1,9,11-trioxo-2,10-diazaspiro [4.6]undecan-2-yl) pyridine-3-carboxylate] |
| 50 to 100 | CC(C)(C)OC(=O)c1ccnc(N2CCC3(CCCC(=O)NC3=O)C2)c1 (stereo not drawn) [Example 91, tert-Butyl 2-(6,8-dioxo-2,7-diazaspiro [4.6]undecan-2-yl) pyridine-4-carboxylate] |
| ≥ 100 | CC(C)(C)OC(=O)c1cccc(N2CCC3(CCCC(=O)NC3=O)C2)n1 (stereo not drawn) [Example 92, tert-Butyl 6-(6,8-dioxo-2,7-diazaspiro [4.6]undecan-2-yl) pyridine-2-carboxylate] |
| ≥ 100 | CC(C)(C)OC(=O)c1ccc(N2CCCC3(CCCC(=O)NC3=O)C2)nc1 (stereo not drawn) [Example 93, tert-Butyl 6-(7,9-dioxo-2,8-diazaspiro [5.6]dodecan-2-yl) pyridine-3-carboxylate] |
| 50 to 100 | CC(C)(C)OC(=O)c1ccc(N2CCC3(CCCC(=O)NC3=O)CC2)nc1 [Example 94, tert-Butyl 6-(7,9-dioxo-3,8-diazaspiro [5.6]dodecan-3-yl) pyridine-3-carboxylate] |
| ≥ 100 | CC(C)(C)OC(=O)c1cnc(N2CCC3(CCCC(=O)NC3=O)C2)s1 (stereo not drawn) [Example 95, tert-Butyl 2-(6,8-dioxo-2,7-diazaspiro [4.6]undecan-2-yl)-1,3-thiazole-5-carboxylate] |
| ≥ 100 | CNC(=O)c1ccc(N2CCC3(CCCC(=O)NC3=O)C2)nc1 (stereo not drawn) [Example 96, 6-(6,8-Dioxo-2,7-diazaspiro [4.6]undecan-2-yl)-N-methylpyridine-3-carboxamide] |
| ≥ 100 | CC(C)(C)OC(=O)N1CCN(C(=O)c2ccc(N3CCC4(CCCC(=O)NC4=O)C3)nc2)CC1 (stereo not drawn) [Example 97, tert-Butyl 4-[6-(6,8-dioxo-2,7-diazaspiro [4.6]undecan-2-yl)pyridine-3-carbonyl]piperazine-1-carboxylate] |
| ≥ 100 | CC(C)(C)OC(=O)N1CCN(Cc2ccc(N3CCC4(CCCC(=O)NC4=O)C3)nc2)CC1 (stereo not drawn) [Example 99, tert-Butyl 4-[[6-(6,8-dioxo-2,7-diazaspiro [4.6]undecan-2-yl)pyridin-3-yl]methyl]piperazine-1-carboxylate] |
| ≥ 100 | O=C1CCCC2(CCCN(C(=O)c3ccccc3)C2)C(=O)N1 (stereo not drawn) [Example 104, 2-Benzoyl-2,8-diazaspiro [5.6]dodecane-7,9-dione] |
| ≥ 100 | O=C1CCCC2(CCN(C(=O)c3ccccc3)CC2)C(=O)N1 [Example 106, 3-Benzoyl-3,8-diazaspiro [5.6]dodecane-7,9-dione] |
| 50 to 100 | CC(C)(C)OC(=O)c1ccc(N2CCC3(CCCC(=O)NC3=O)CC2=O)nc1 (stereo not drawn) [Example 108, tert-Butyl 6-(4,7,9-trioxo-3,8-diazaspiro [5.6]dodecan-3-yl) pyridine-3-carboxylate] |

From US20250388593A1 (MITSUBISHI TANABE PHARMA CORPORATION, priority 2023, published 2025)
